Laboratory results published in patent publication US12594349B2, “Compositions and methods for the targeting of PCSK9” (Scribe Therapeutics Inc., priority 2022, dated 2026).

Tested on: human PCSK9 locus
Experiment: Secreted PCSK9 by ELISA in Huh7 cells transfected with mRNA and gRNA
Type: cell-based
Settings: Huh7 cells; for Secreted PCSK9: 6 days post-transfection, normalized to total cell count; for Percent reduction in PCSK9 secretion / Average percent reduction in PCSK9 secretion: LTRP5-ADD-ZIM3 mRNA; for Percent reduction in PCSK9 secretion: day 6, relative to non-targeting gRNA control; for Average percent reduction in PCSK9 secretion: day 6, averaged from the two doses
Procedure: To assess PCSK9 secretion, seeded Huh7 cells were transfected with mRNA encoding a catalytically-active CasX 676, dXR1, or LTRP5-ADD-ZIM3 and a gRNA with scaffold 316 and spacer targeting either the B2M or PCSK9 locus. Media supernatant was harvested at 6, 18, 36, and 87 days post-transfection to assess level of PCSK9 secretion by ELISA. Levels of PCSK9 secretion were normalized to total cell count. As an additional control, PCSK9 secretion was also measured in the media supernatant harvested from wells containing untreated, naïve cells.
The following three human hepatocyte cancer cell lines were used in this experiment: HepG2 cells, Hep3B cells, and Huh7 cells. ˜15,000 cells of each cell line were seeded per well; the next day, seeded cells were transfected with mRNA encoding a catalytically-active CasX 676, dXR1, or LTRP5-ADD-ZIM3 and a gRNA with scaffold 316 and spacer targeting either the B2M or PCSK9 locus (see Table 23 for specific spacers and sequences). Media supernatant was harvested at 4 days post-transfection to assess level of PCSK9 secretion by ELISA, and levels of PCSK9 secretion were normalized to total cell count and illustrated in FIGS. 11A-11C. Culturing of treated Huh7 cells continued, and media supernatant was harvested at 14 and 27 days post-transfection for measuring PCSK9 secretion by ELISA. As an additional experimental control, PCSK9 secretion was also measured in the media supernatant harvested from wells containing untreated, naïve cells.
To assess PCSK9 secretion, seeded Huh7 cells were co-transfected with mRNA encoding for LTRP5-ADD-ZIM3 and a gRNA with scaffold 316 and spacer targeting the PCSK9 locus using Lipofectamine™ 3000. Two doses of total RNA input at a 2:1 mass ratio of mRNA to gRNA were used for screening: 50 ng mRNA:25 ng gRNA and 25 ng mRNA:12.5 ng gRNA. Media supernatant was harvested at 6 days post-transfection to assess level of PCSK9 secretion by ELISA (Table 74). Levels of PCSK9 secretion were normalized to total cell count. As an additional control, PCSK9 secretion was also measured in the media supernatant harvested from cells transfected with mRNA encoding for mScarlet.

[1] = LTRP5-ADD-ZIM3 mRNA + gRNA scaffold 316, 25 ng mRNA:12.5 ng gRNA
[2] = LTRP5-ADD-ZIM3 mRNA + gRNA scaffold 316, 50 ng mRNA:25 ng gRNA

Substance | Secreted PCSK9 [1] [ng/mL] | Secreted PCSK9 [2] [ng/mL] | Percent reduction in PCSK9 secretion (25 ng mRNA:12.5 ng gRNA) [%] | Percent reduction in PCSK9 secretion (50 ng mRNA:25 ng gRNA) [%] | Average percent reduction in PCSK9 secretion [%]
TG-06-169 (guide CGGGGUUGGGAGACCCGGAG; listed as RNA, chemistry not given here) | 62.55 | 66.39 | 12.2 | 19.3 | 15.75
TG-06-143 (guide GAAUCAAUCCUACUGUGGAC; listed as RNA, chemistry not given here) | 22.33 | 38.69 | 68.66 | 52.97 | 60.81
TG-06-170 (guide UCGGCCUCCGGGUCUCCCAA; listed as RNA, chemistry not given here) | 72.96 | 64.19 | 2.41 | 21.98 | 9.79
Non-targeting (guide CGAGACGTAATTACGTCTCG; chemistry not given here) | – | – | 0 | 0 | 0
TG-06-144 (guide GUGGGCAGCGAGGAGUCCAC; listed as RNA, chemistry not given here) | 29 | 23.42 | 59.29 | 71.53 | 65.41
TG-06-122 (guide CCUUUGUUUCUUCCCAGUAU; listed as RNA, chemistry not given here) | 86.06 | 79.36 | 20.79 | 3.54 | 8.63
TG-06-139 (guide AGGAGCAGCUAGUUGGUAAG; listed as RNA, chemistry not given here) | 25.45 | 15.03 | 64.28 | 81.73 | 73.01
TG-06-172 (guide GCUGAAACAGAUGGAAUACU; listed as RNA, chemistry not given here) | 59.31 | 44.44 | 16.75 | 45.99 | 31.37
TG-06-147 (guide GUGUUUCCUGGGUCCACCUU; listed as RNA, chemistry not given here) | 37.43 | 53.6 | 47.46 | 34.85 | 41.15
TG-06-146 (guide GAAGUCUCACUGGUCAGCAG; listed as RNA, chemistry not given here) | 20.34 | 40.84 | 71.45 | 50.36 | 60.9
TG-06-149 (guide AGCCCAGUUAGGAUUUGGGA; listed as RNA, chemistry not given here) | 38.33 | 21.18 | 46.21 | 74.26 | 60.23
TG-06-005 (guide GUGCUCGGGUGCUUCGGCCA; listed as RNA, chemistry not given here) | 76.37 | 67.08 | 7.19 | 18.47 | 5.64
TG-06-148 (guide GCCGGGCCCACCUUUUCAGU; listed as RNA, chemistry not given here) | 44.77 | 71.46 | 37.16 | 13.15 | 25.15
